The values below come from ChEMBL document CHEMBL4138112, “Synthesis of novel indole derivatives as promising DNA-binding agents and evaluation of antitumor and antitopoisomerase I activities” (Eur J Med Chem, 2017).

Active and inactive are the calls of the source. No cut-off for these calls is given here. Bounds are passed on as bounds.

In one test the test system is K562. Kind of test: Cytotoxicity against human K562 cells assessed as reduction in cell viability after 72 hrs by MTT assay. The test is classed as functional, cell-based. The following applies: K562, 72 h.
Test [1] deals with Calf thymus DNA. Kind of test: Binding affinity to calf thymus DNA assessed as change in absorption maximum at 10 to 80 uM by UV-Visible absorption spectroscopy (reference value: 425 to 500 nanometer). The class given is nucleic-acid assay. The following applies: Bos taurus.
Test [2] concerns Calf thymus DNA. Kind of test: Binding affinity to calf thymus DNA assessed as hyperchromicity at 10 to 80 uM by UV-Visible absorption spectroscopy relative to control. The class given is nucleic-acid assay. The following applies: Bos taurus.
Test [3] deals with Calf thymus DNA. In words: Inhibition of ethidium bromide binding to calf thymus DNA by fluorescence spectra analysis. The test is classed as nucleic-acid assay. The following applies: Bos taurus.
The test system of the next test is T47D. In words: Cytotoxicity against human T47D cells assessed as reduction in cell viability after 72 hrs by MTT assay. The test is classed as functional, cell-based.
In test [4] the test system is Calf thymus DNA. In words: Binding affinity to calf thymus DNA by UV-Visible absorption spectroscopy. The test is classed as nucleic-acid assay. The following applies: Bos taurus.
The next test relates to MCF7. Kind of test: Cytotoxicity against human MCF7 cells assessed as reduction in cell viability after 72 hrs by MTT assay. The test is classed as functional, cell-based. Particulars: MCF7, 72 h. For orientation: Tetrazolium dyes change colour on reduction, which living cells bring about.
For the next test, the system named is HL-60. Kind of test: Cytotoxicity against human HL60 cells assessed as reduction in cell viability after 72 hrs by MTT assay. Particulars: HL-60, 72 h. The test is classed as functional, cell-based.
The test system of test [5] is Calf thymus DNA. Kind of test: Binding affinity to calf thymus DNA assessed as hypochromicity at 10 to 80 uM by UV-Visible absorption spectroscopy relative to control. The test is classed as nucleic-acid assay. Particulars: Bos taurus.
The test system of test [6] is Calf thymus DNA. Kind of test: Inhibition of ethidium bromide binding to calf thymus DNA at 20 to 200 uM by fluorescence spectra analysis. The class given is nucleic-acid assay. Particulars: Bos taurus.
In test [7] the target is T1, DNA topoisomerase 1 (Homo sapiens) (UniProt P11387).
T1 sequence (whole entry): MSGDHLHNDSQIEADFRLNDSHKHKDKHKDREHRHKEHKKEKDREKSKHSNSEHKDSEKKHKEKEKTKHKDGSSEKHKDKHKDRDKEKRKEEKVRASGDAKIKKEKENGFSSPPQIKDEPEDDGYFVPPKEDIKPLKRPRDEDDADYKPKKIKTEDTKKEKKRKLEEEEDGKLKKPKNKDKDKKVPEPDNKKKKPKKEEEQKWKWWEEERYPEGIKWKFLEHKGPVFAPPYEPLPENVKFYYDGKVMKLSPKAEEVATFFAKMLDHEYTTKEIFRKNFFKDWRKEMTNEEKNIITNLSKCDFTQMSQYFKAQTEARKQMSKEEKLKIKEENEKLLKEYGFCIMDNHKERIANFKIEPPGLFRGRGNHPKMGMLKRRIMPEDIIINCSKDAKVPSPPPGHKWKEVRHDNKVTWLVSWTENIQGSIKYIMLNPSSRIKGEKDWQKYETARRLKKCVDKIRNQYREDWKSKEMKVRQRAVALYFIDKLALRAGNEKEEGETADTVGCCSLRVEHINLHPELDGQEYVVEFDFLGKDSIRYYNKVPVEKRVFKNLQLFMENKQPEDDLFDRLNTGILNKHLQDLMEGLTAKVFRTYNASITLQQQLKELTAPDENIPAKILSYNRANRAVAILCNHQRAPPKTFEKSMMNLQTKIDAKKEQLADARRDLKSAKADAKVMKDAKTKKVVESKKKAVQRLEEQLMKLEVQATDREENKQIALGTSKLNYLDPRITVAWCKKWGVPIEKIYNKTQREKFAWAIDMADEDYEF
In words: Inhibition of human recombinant topoisomerase 1-mediated relaxation of supercoiled pUC19 DNA at 10 to 50 uM after 45 mins by ethidium bromide staining based agarose gel electrophoresis method.

Consider `O=C1NC(=S)S/C1=C\c1c[nH]c2ccc(Br)cc12`, for which the IC50 – broadly, the concentration at which inhibition is half-maximal – with K562 was greater than 50 µM; in the test on T47D, 11.7 µM; in the test on MCF7, 3.65 µM; in the test on HL-60, greater than 50 µM. For the same molecule, the Activity in the test with Calf thymus DNA [1] is 462 to 465 nm; with Calf thymus DNA [2] it was 8%. In the test with Calf thymus DNA [3], this molecule gave a KSV of 6.31 ×10³ /M. Besides, the Kb in the test with Calf thymus DNA [4] was found to be 1.56 ×10⁴ /M.
As to `O=C1NC(=S)N/C1=C\c1c[nH]c2ccccc12`, the IC50 in the test with K562 was greater than 50 µM; in the test on T47D, greater than 50 µM; with MCF7, 12.4 µM; in the test on HL-60, greater than 50 µM. Further, the Activity was 11% in the test on Calf thymus DNA [5] and 423 nm with Calf thymus DNA [1]. In the test on Calf thymus DNA [3], this molecule returned a KSV of 1.36 ×10³ /M. This molecule also yielded a Kb with Calf thymus DNA [4] of 6.27 ×10⁴ /M.
For the molecule `NN1C(=O)/C(=C/c2c[nH]c3ccccc23)SC1=S`, the IC50 with K562 was 22.5 µM; in the test with T47D, greater than 50 µM; in the test with MCF7, greater than 50 µM; in the test on HL-60, 3.61 µM. Besides, the Activity in the test on Calf thymus DNA [1] was 504 to 507 nm; in the test on Calf thymus DNA [2], 6%. In addition, the outcome in the test with Calf thymus DNA [6] was Active. Moreover, the inhibition result in test [7] was “Active”. This molecule yielded a KSV in the test on Calf thymus DNA [3] of 1.81 ×10⁴ /M. In the test with Calf thymus DNA [4], the Kb was 5.69 ×10⁴ /M.
Turning to `NN1C(=O)/C(=C/c2c[nH]c3ccc(Br)cc23)SC1=S`, the IC50 is greater than 50 µM with K562, greater than 50 µM with T47D, greater than 50 µM in the test with MCF7 and 6.74 µM with HL-60. Also, the figures for the Activity in the test with Calf thymus DNA [1] and in the test on Calf thymus DNA [2] were 411 to 413 nm and 23%, respectively. In the test with Calf thymus DNA [3], this molecule yielded a KSV of 2.96 ×10³ /M. The Kb in the test on Calf thymus DNA [4] was 1.84 ×10⁴ /M.
`O=C1NC(=O)/C(=C/c2c[nH]c3ccc(Br)cc23)S1`: the IC50 in the test on K562, in the test with T47D, in the test on MCF7 and in the test on HL-60 was greater than 50 µM each time. Moreover, the Activity in the test on Calf thymus DNA [5] came to 6%; in the test on Calf thymus DNA [1], 457 nm. In addition, in the test with Calf thymus DNA [3], the KSV amounted to 3.86 ×10³ /M. The same molecule returned a Kb in the test with Calf thymus DNA [4] of 5.24 ×10⁴ /M.
Regarding `COc1cccc2c1C(=O)c1c(O)c3c(c(O)c1C2=O)C[C@@](O)(C(=O)CO)C[C@@H]3O[C@H]1C[C@H](N)[C@H](O)[C@H](C)O1` [DOXORUBICIN], the IC50 in the test with K562 was 6.25 µM; with T47D, 4.61 µM; in the test with MCF7 it was 2.71 µM; in the test on HL-60, 0.01 µM.
`O=C1NC(=O)/C(=C/c2c[nH]c3ccccc23)S1`: the IC50 with K562 is greater than 50 µM; with T47D, 1.93 µM; in the test with MCF7 it was greater than 50 µM; in the test on HL-60, 12.8 µM. In addition, the Activity in the test on Calf thymus DNA [5] turned out to be 24%; in the test with Calf thymus DNA [1], 378 nm. The molecule further yielded a KSV in the test with Calf thymus DNA [3] of 1.59 ×10³ /M. The same molecule gave a Kb with Calf thymus DNA [4] of 7.26 ×10⁴ /M.
In the case of `O=C1NC(=S)S/C1=C\c1c[nH]c2ccccc12`, the IC50 in the test with K562, in the test with T47D, in the test on MCF7 and in the test on HL-60 was greater than 50 µM each time. The Activity is 436 to 462 nm in the test with Calf thymus DNA [1] and 75% in the test on Calf thymus DNA [2]. Further, the KSV in the test with Calf thymus DNA [3] stood at 1.78 ×10³ /M. In addition, the Kb in the test on Calf thymus DNA [4] came out at 4.51 ×10⁴ /M.
